Reference: ChEMBL document CHEMBL1141769, “Pursaethosides A-E, triterpene saponins from Entada pursaetha” (J Nat Prod, 2005)

Tests used:
[1] = tested on: HCT-116; test: Cytotoxicity against human HCT116 cells after 96 hrs by MTT assay; assay type: functional, cell-based; settings: HCT-116, 96 h
[2] = tested on: HT-29; test: Cytotoxicity against human HT-29 cells after 96 hrs by MTT assay; assay type: functional, cell-based; settings: HT-29, 96 h

SMILES: CC(=O)N[C@H]1[C@H](O[C@H]2CC[C@]3(C)[C@H]4CC=C5[C@@H]6CC(C)(C)CC[C@]6(C(=O)O[C@@H]6O[C@H](CO)[C@@H](O)[C@H](O)[C@H]6O[C@@H]6OC[C@](O)(CO)[C@H]6O)[C@H](O)C[C@@]5(C)[C@]4(C)CC[C@H]3C2(C)C)O[C@H](CO[C@@H]2OC[C@H](O)[C@H](O)[C@H]2O)[C@@H](O)[C@@H]1O[C@@H]1OC[C@@H](O)[C@H](O)[C@H]1O [PURSAETHOSIDE B]
- IC50 [1]: > 100 µg/mL
- IC50 [2]: > 100 µg/mL

SMILES: CC(=O)N[C@H]1[C@H](O[C@H]2CC[C@]3(C)[C@H]4CC=C5[C@@H]6CC(C)(C)CC[C@]6(C(=O)O[C@@H]6O[C@H](CO)[C@@H](O)[C@H](O)[C@H]6O[C@@H]6OC[C@](O)(CO)[C@H]6O)[C@H](O)[C@H](O)[C@@]5(C)[C@]4(C)CC[C@H]3C2(C)C)O[C@H](CO[C@@H]2OC[C@H](O)[C@H](O)[C@H]2O)[C@@H](O)[C@@H]1O[C@@H]1OC[C@@H](O)[C@H](O)[C@H]1O [PURSAETHOSIDE C]
- IC50 [1]: > 100 µg/mL
- IC50 [2]: > 100 µg/mL
